Laboratory results published in publication PMC2903571, “Sterol carrier protein-x gene and effects of sterol carrier protein-2 inhibitors on lipid uptake in Manduca sexta” (BMC Physiology, 2010).
Structures can show the parent of a compound that is named as a salt.

Assays:
Day 3 4th instar larvae = experiment: Dietary uptake of NBD-cholesterol in larvae fed SCPIs; settings: mean ± S.D.
Procedure: NBD-cholesterol and the SCPI were added into the diet and fed to Day 3 4th instar larvae (12 insects (4 insects/time)/group) as described for [^3H]-cholesterol. Total lipids were extracted from tissue samples as described for [^3H]-cholesterol. Dried lipids were re-dissolved in 50 μl methanol and the NBD fluorescent was measured (470/530 nm = excitation/emission). RFU = the relative fluorescent unit (sample FU - blank FU).
**Data were analyzed using two-way ANOVA.

MsSCP-2 [1] = target: T1, MsSCP-2 (Manduca sexta, UniProt D8VD27); experiment: biochemical
Procedure: (§5) The inhibitory effect of SCPI on cholesterol binding to MsSCP-2 was measured using NBD-cholesterol competition assays. In a 50 μl reaction solution in each well of a 96-well plate purified recombinant MsSCP-2 (5 μM) was incubated with NBD-cholesterol (1.25 μM) in the presence of increased concentrations of a SCPI (0-12.5 μM) in 10 mM KHPO4 buffer (pH 7.4) for 5 min. The fluorescence intensity (excitation/emission = 470/530) of NBD-cholesterol was measured. The background control was NBD-cholesterol alone in 10 mM KHPO4 buffer (pH 7.4). A separate set of tests was performed using NBD-cholesterol with increasing concentrations of a SCPI to assess whether a SCPI interfered with NBD-cholesterol fluorescence. If a SCPI interfered with NBD-cholesterol fluorescence, the background control was NBD-cholesterol along with the SCPI. The net change in NBD-cholesterol fluorescence intensity was calculated by subtracting the fluorescence of the background control from the NBD-cholesterol-MsSCP-2 complex in the absence or presence of an inhibitor. The data were plotted with the relative NBD-cholesterol fluorescent intensity (bound NBD-cholesterol) as the y-axis and the molarities of the inhibitor as the x-axis. Bacterial GST protein and Aedes aegypti SCP-2 protein (AeSCP-2) were used as a negative control and a positive control for the assays, respectively.

Manduca sexta larvae = tested on: Manduca sexta larvae; parameters: method as in PMID 15627652; settings: cited from earlier work
[2] = tested on: M. sexta Day 3 4th instar larvae; experiment: [3H]-palmitic acid uptake (label/chase) in larvae fed SCPIs; type: in vivo, Manduca sexta; settings: midgut tissue, 2-6 h post feeding
Procedure: (§1) Collected tissue samples were stored at -80°C.
(§2) Student t-test was used in cases where a pair of treatments was compared to determine the significance of the differences.

Manduca sexta GV1 cells = tested on: Manduca sexta GV1 cells; parameters: method as in PMID 15627652; settings: 10 μM; cited from earlier work
AeSCP-2 [3] = target: T2, AeSCP-2 (Aedes aegypti, UniProt Q86PR3); experiment: biochemical
T2 sequence (Q86PR3 1-110): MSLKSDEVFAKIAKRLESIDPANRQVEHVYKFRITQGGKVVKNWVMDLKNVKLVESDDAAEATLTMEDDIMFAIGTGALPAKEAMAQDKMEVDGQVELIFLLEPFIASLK
Procedure: as §5

[4] = tested on: M. sexta Day 3 4th instar larvae; experiment: [3H]-cholesterol uptake (label/chase) in larvae fed SCPIs; type: in vivo, Manduca sexta; settings: for suppression of cholesterol storage (stored [3H]-cholesterol) in the fat body: within 6 hours of treatment, versus controls; for accumulation of [3H]-cholesterol in the fat body versus controls: within 6 hours post feeding; for [3H]-cholesterol levels in the feces, higher than in the controls: within the 6 hour period; for amount of labeled cholesterol in the hemolymph: 2 to 6 hours post feeding; for hemolymph [3H]-cholesterol levels versus control: all post feeding time points; for total amount of [3H]-cholesterol in the midgut tissue versus controls: over the observed time period (2-6 h), two-way ANOVA
Procedure: as §1, §2

[5] = parameters: method as in PMID 6833881; settings: room temperature; cited from earlier work
[6] = parameters: method as in PMID 11566796; settings: cited from earlier work
GST = experiment: NBD-cholesterol binding assay, GST (negative control); parameters: species or system bacterial; settings: negative control protein
Procedure: (§3) MsSCP-2 binding affinity for NBD-cholesterol, an analog of cholesterol, was determined using NBD-cholesterol binding assays. A 1 ml sample of 10 μM recombinant MsSCP-2 was diluted with 10 mM KHPO4 buffer (pH 7.4) to various concentrations (1 nM~10 μM). Twenty-five microliters of each concentration of MsSCP-2 solution and the control (without MsSCP-2) were thoroughly mixed with 25 μl of NBD-cholesterol solution (1 μM in KHPO4 buffer, pH 7.4) and allowed to equilibrate for 3 minutes to permit stable measurement of the fluorescence signal. NBD-cholesterol fluorescence was excited at 470 nm, and emission was recorded at 530 nm using a fluorescence microplate reader (Model: GeminiXPS, Molecular Devices). Data were fit using a simple, single binding site, non-linear regression model in GraphPad PRISM® software version 4.0 (GraphPad Software Inc., San Diego, CA) using the equation: [drawing 1]
(§4) Where, Kd is the binding affinity, X is the NBD-cholesterol concentration (μM), Y is the total binding (fluorescent intensity unit), and Bmax is the maximum specific binding to be fit. AeSCP-2 and GST were used as a positive control and a negative control, respectively. NBD-cholesterol binding assays for the controls were performed the same as described above for recombinant MsSCP-2.

MsSCP-2 [7] = target: T1, MsSCP-2; experiment: NBD-cholesterol binding assay, recombinant MsSCP-2; settings: NBD-cholesterol 1 μM, MsSCP-2 1 nM~10 μM, one site binding non-linear regression; read-out: binding affinity (Kd) of MsSCP-2 to NBD-cholesterol
Procedure: as §3, §4

AeSCP-2 [8] = target: T2, AeSCP-2; experiment: NBD-cholesterol binding assay, AeSCP-2 (positive control); settings: NBD-cholesterol 1 μM, one site binding non-linear regression; read-out: binding affinity (Kd) of AeSCP-2 to NBD-cholesterol
Procedure: as §3, §4

T1 sequence (D8VD27 entry or part of it): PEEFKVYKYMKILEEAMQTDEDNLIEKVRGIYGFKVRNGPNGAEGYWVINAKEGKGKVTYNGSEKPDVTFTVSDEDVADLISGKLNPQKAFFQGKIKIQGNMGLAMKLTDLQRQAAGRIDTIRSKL

COc1cccc(-n2sc3c(c2=S)-c2cc(Cl)ccc2NC3(C)C)c1 [SCPI-2, 8-chloro-2-(3-methoxyphenyl)-4,4-dimethyl-4,5-dihydroisothiazol[5,4-c]quinoline-1(2H)-thione]
NBD-cholesterol, fat body, 2 hour (Day 3 4th instar larvae): 4.20±0.57 RFU/mg proteins | NBD-cholesterol, fat body, 4 hour (Day 3 4th instar larvae): 7.74±3.56 RFU/mg proteins | NBD-cholesterol, fat body, 6 hour (Day 3 4th instar larvae): 9.05±4.09 RFU/mg proteins | NBD-cholesterol, hemolymph, 2 hour (Day 3 4th instar larvae): 4.93±1.26 RFU/mg proteins | NBD-cholesterol, hemolymph, 4 hour (Day 3 4th instar larvae): 4.58±1.47 RFU/mg proteins | NBD-cholesterol, hemolymph, 6 hour (Day 3 4th instar larvae): 3.89±0.98 RFU/mg proteins | NBD-cholesterol, midgut, 2 hour (Day 3 4th instar larvae): 21.39±2.77 RFU/mg proteins | NBD-cholesterol, midgut, 4 hour (Day 3 4th instar larvae): 21.45±3.55 RFU/mg proteins | NBD-cholesterol, midgut, 6 hour (Day 3 4th instar larvae): 17.43±6.46 RFU/mg proteins | EC50 (MsSCP-2 [1]): 900 nM | lethality to Manduca larvae (Manduca sexta larvae): more lethal than SCPI-1 | [3H]-palmatic acid uptake/levels in the midgut [2]: suppressed | suppression of cholesterol uptake (Manduca sexta GV1 cells): 22% | EC50 (AeSCP-2 [3]): 800 nM | amount of [3H]-cholesterol in the midgut [4]: 367836.9 DMP/mg protein | less stored [3H]-cholesterol in the fat body than for the SCPI-1-treatment ([4]; fat body, 6 hours post feeding): 56% | suppression of cholesterol storage (stored [3H]-cholesterol) in the fat body ([4]; fat body): 69% | accumulation of [3H]-cholesterol in the fat body versus controls ([4]; fat body): significantly lower | [3H]-cholesterol levels in the feces, higher than in the controls [4]: 369.02% | amount of labeled cholesterol in the hemolymph ([4]; SCPI at LD50 dosage in diet): 29564.4 DPM/mg protein | hemolymph [3H]-cholesterol levels versus control [4]: significantly lower | greater reduction in [3H]-cholesterol uptake/transport than the SCPI-1-treatment ([4]; midgut tissue): 46% | [3H]-cholesterol in the midgut tissue, % of the controls ([4]; midgut, 2 hour post feeding, SCPI at LD50 dosage in diet): 43.18% | total amount of [3H]-cholesterol in the midgut tissue versus controls ([4]; midgut): significantly lower

CC(C)CCC[C@@H](C)[C@H]1CC[C@H]2[C@@H]3CC=C4C[C@@H](O)CC[C@]4(C)[C@H]3CC[C@]12C [Cholesterol, cholesterol]
solubility in water [5]: ~ 10 nM | flip-flop rate (t1/2) within the lipid bilayer [6]: 1 to 2 min

CC(=O)Nc1ccc(Nc2nc(-c3ccc(Cl)c(Cl)c3)cs2)cc1 [SCPI-1, N-4-{[4-(3,4-dichlorophenyl)-1,3-thiazol-2-yl]amino}phenyl)aetamide hydrobromide]
NBD-cholesterol, fat body, 2 hour (Day 3 4th instar larvae): 8.01±2.84 RFU/mg proteins | NBD-cholesterol, fat body, 4 hour (Day 3 4th instar larvae): 4.18±1.06 RFU/mg proteins | NBD-cholesterol, fat body, 6 hour (Day 3 4th instar larvae): 3.75±1.10 RFU/mg proteins | NBD-cholesterol, hemolymph, 2 hour (Day 3 4th instar larvae): 8.62±3.62 RFU/mg proteins | NBD-cholesterol, hemolymph, 4 hour (Day 3 4th instar larvae): 7.04±1.37 RFU/mg proteins | NBD-cholesterol, hemolymph, 6 hour (Day 3 4th instar larvae): 5.63±1.62 RFU/mg proteins | NBD-cholesterol, midgut, 2 hour (Day 3 4th instar larvae): 22.77±3.02 RFU/mg proteins | NBD-cholesterol, midgut, 4 hour (Day 3 4th instar larvae): 22.61±4.57 RFU/mg proteins | NBD-cholesterol, midgut, 6 hour (Day 3 4th instar larvae): 17.78±6.43 RFU/mg proteins | EC50 (MsSCP-2 [1]): 2200 nM | [3H]-palmatic acid uptake/levels in the midgut [2]: suppressed | suppression of cholesterol uptake (Manduca sexta GV1 cells): 15% | EC50 (AeSCP-2 [3]): 900 nM | amount of [3H]-cholesterol in the midgut [4]: 555098.9 DMP/mg protein | suppression of cholesterol storage (stored [3H]-cholesterol) in the fat body ([4]; fat body): 37% | accumulation of [3H]-cholesterol in the fat body versus controls ([4]; fat body): significantly lower | [3H]-cholesterol levels in the feces, higher than in the controls [4]: 265.84% | amount of labeled cholesterol in the hemolymph ([4]; SCPI at LD50 dosage in diet): 28087.6 DPM/mg protein | hemolymph [3H]-cholesterol levels versus control [4]: significantly lower | total [3H]-cholesterol in the midgut tissue compared with the control group ([4]; midgut, 2 hour time point, SCPI at LD50 dosage in diet): slightly lower | total amount of [3H]-cholesterol in the midgut tissue versus controls ([4]; midgut): significantly lower

C[C@H](CNc1ccc([N+](=O)[O-])c2nonc12)[C@H]1CC[C@H]2[C@@H]3CC=C4C[C@@H](O)CC[C@]4(C)[C@H]3CC[C@]12C [NBD-cholesterol, 22-(N-(7-nitrobenz-2-oxa-1,3-diazol-4-yl)amino)-23,24-bisnor-5-cholen-3β-ol]
binding of GST to NBD-cholesterol (GST): little binding | Kd (MsSCP-2 [7]): 1860 nM | Kd (AeSCP-2 [8]): 820 nM
